# According to patent publication US20250195530A1, “POLQ INHIBITORS” (ASTRAZENECA AB, priority 2022, published 2025):
# Test system: DLD-1 BRCA2−/− cells
# Assay: Homologous recombination synthetic lethal inhibition of proliferation, DLD-1 BRCA2-/- (Cell Titre Glo 3D)
# Assay type: cell-based
# Conditions: Homo sapiens, DLD-1, first proliferation column (c5), taken as DLD-1 BRCA2-/-; read-out: POLQ PD Prolif Lumin (converted)
# In short: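 Read-out: CellTiter-Glo 3D luminescence, day 7 for wt DLD-1, day 12 for BRCA2−/−, about 8-9 population doublings each. Seeding 1,500 or 3,000 cells/mL respectively. Dose range 10 μM–0.51 nM, 3-fold, 10 points, with re-dosing on day 6. IC50 from curve fit.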
row,Compound,IC50 [nM]
1,"Cc1ccnc(Cn2c(-c3ccc(OCC(=O)NC4COC4)cc3Cl)nc3c(OC4(C)CC4)ncnc32)c1 [Example T323, 2-(3-chloro-4-(6-(1-methylcyclopropoxy)-9-((4-methylpyridin-2-yl)methyl)-9H-purin-8-yl)phenoxy)-N-(oxetan-3-yl)acetamide]",200
2,"Cc1ccnc(Cn2c(-c3ccc(OC[C@@H]4CNC(=O)CO4)cc3Cl)nc3c(OC4(C)CC4)ncnc32)c1 [Example T324, (S)-6-((3-chloro-4-(6-(1-methylcyclopropoxy)-9-((4-methylpyridin-2-yl)methyl)-9H-purin-8-yl)phenoxy)methyl)morpholin-3-one]",398
3,"CC1(Oc2ncnc3c2nc(-c2cccc(OCCCC(=O)NS(C)(=O)=O)c2Cl)n3Cc2cccc(Cl)c2)CC1 [Example T325, 4-(2-chloro-3-(9-(3-chlorobenzyl)-6-(1-methylcyclopropoxy)-9H-purin-8-yl)phenoxy)-N-(methylsulfonyl)butanamide]",316
4,"Cc1ccnc(Cn2c(-c3ccc(OCC(=O)NC[C@H](C)F)cc3Cl)nc3c(OC4(C)CC4)ncnc32)c1 [Example T327, (S)-2-(3-chloro-4-(6-(1-methylcyclopropoxy)-9-((4-methylpyridin-2-yl)methyl)-9H-purin-8-yl)phenoxy)-N-(2-fluoropropyl)acetamide]",200
5,"Cc1ccnc(Cn2c(-c3ccc(OCC(=O)NCCCF)cc3Cl)nc3c(OC4(C)CC4)ncnc32)c1 [Example T328, 2-(3-chloro-4-(6-(1-methylcyclopropoxy)-9-((4-methylpyridin-2-yl)methyl)-9H-purin-8-yl)phenoxy)-N-(3-fluoropropyl)acetamide]",398
6,"COC1(COc2ccc(-c3nc4c(OC5(C)CC5)ncnc4n3Cc3cc(C)ccn3)c(Cl)c2)COC1 [Example T333, 8-(2-chloro-4-((3-methoxyoxetan-3-yl)methoxy)phenyl)-6-(1-methylcyclopropoxy)-9-((4-methylpyridin-2-yl)methyl)-9H-purine]",251
7,"Cc1ccnc(Cn2c(-c3ccc(OCCC4(O)COC4)cc3Cl)nc3c(OC4(C)CC4)ncnc32)c1 [Example T334, 3-(2-(3-chloro-4-(6-(1-methylcyclopropoxy)-9-((4-methylpyridin-2-yl)methyl)-9H-purin-8-yl)phenoxy)ethyl)oxetan-3-ol]",251
8,"Cc1ccnc(Cn2c(-c3ccc(N4CCNCCC4=O)cc3Cl)nc3c(OC4(C)CC4)ncnc32)c1 [Example T338, 4-(3-chloro-4-(6-(1-methylcyclopropoxy)-9-((4-methylpyridin-2-yl)methyl)-9H-purin-8-yl)phenyl)-1,4-diazepan-5-one]",2000
9,"Cc1ccnc(Cn2c(-c3ccc(N4CCNC(=O)CC4)cc3Cl)nc3c(OC4(C)CC4)ncnc32)c1 [Example T339, 1-(3-chloro-4-(6-(1-methylcyclopropoxy)-9-((4-methylpyridin-2-yl)methyl)-9H-purin-8-yl)phenyl)-1,4-diazepan-5-one]",501
10,"Cc1ccnc(Cn2c(-c3ccc(N4CC[C@H](C(N)=O)C4)cc3Cl)nc3c(OC4(C)CC4)ncnc32)c1 [Example T340, (S)-1-(3-chloro-4-(6-(1-methylcyclopropoxy)-9-((4-methylpyridin-2-yl)methyl)-9H-purin-8-yl)phenyl)pyrrolidine-3-carboxamide]",1260
11,"CNC(=O)C1CN(c2ccc(-c3nc4c(OC5(C)CC5)ncnc4n3Cc3cc(C)ccn3)c(Cl)c2)C1 [Example T341, 1-(3-chloro-4-(6-(1-methylcyclopropoxy)-9-((4-methylpyridin-2-yl)methyl)-9H-purin-8-yl)phenyl)-N-methylazetidine-3-carboxamide]",316
12,"CNC(=O)N1CC(Oc2ccc(-c3nc4c(OC5(C)CC5)ncnc4n3Cc3cc(C)ccn3)c(Cl)c2)C1 [Example T343, 3-(3-chloro-4-(6-(1-methylcyclopropoxy)-9-((4-methylpyridin-2-yl)methyl)-9H-purin-8-yl)phenoxy)-N-methylazetidine-1-carboxamide]",398
